Measurements published in PubChem BioAssay AID1963959 (Molecular Pharmacology Branch, DTP, NCI, 2024).
pIC50: −log10 of the molar value.

System: T-47D spheroids with HUVEC/MSC, viability
Experiment: Anticancer human tumor T-47D cell line growth inhibition [PI3K];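 also: spheroids exposed to agents for seven days before reading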;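 as to viability, T/C: percent of DMSO vehicle control luminescence so 100% = untreated growth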
Details: for pIC50: curve of first compound; for viability, T/C: stronger effect = lower value
In short: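 Multi-cell spheroids combine tumor cells with HUVEC and human MSCs, treated with targeted agents alone or with inavolisib, alpelisib, duvelisib or copanlisib. Concentrations fall in half-log steps from at or near clinical Cmax, or from 10 microM where Cmax is unknown; viability read-out.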

Work on `CC1(C)CCC(CN2CCN(c3ccc(C(=O)NS(=O)(=O)c4ccc(NCC5CCOCC5)c([N+](=O)[O-])c4)c(Oc4cnc5[nH]ccc5c4)c3)CC2)=C(c2ccc(Cl)cc2)C1` + CC(Nc1ccc2c(c1)OCCn1cc(N3C(=O)OCC3C(F)F)nc1-2)C(N)=O yielded a pIC50 (second compound 0.00316 µM) of less than 5.00, a pIC50 (second compound 0.01 µM) of less than 5.00 and a pIC50 (second compound 0.0316 µM) of less than 5.00. For the same compound, the pIC50 (second compound 0.1 µM) was less than 5.00, the pIC50 (second compound 0.316 µM) was less than 5.00 and the pIC50 (second compound 1 µM) was 5.38. For the same compound, the viability, T/C (second compound 0.00316 µM, first compound 0.0316 µM) was 101%, the viability, T/C (second compound 0.00316 µM, first compound 0.1 µM) was 97.2% and the viability, T/C (second compound 0.00316 µM, first compound 0.316 µM) was 98.9%. For the same compound, the viability, T/C (second compound 0.00316 µM, first compound 1 µM) was 89.8%, the viability, T/C (second compound 0.00316 µM, first compound 3.16 µM) was 76.3% and the viability, T/C (second compound 0.00316 µM, first compound 10 µM) was 78.9%. For the same compound, the viability, T/C (second compound 0.01 µM, first compound 0.0316 µM) was 90.1%, the viability, T/C (second compound 0.01 µM, first compound 0.1 µM) was 81.5% and the viability, T/C (second compound 0.01 µM, first compound 0.316 µM) was 93.7%. It also gave a viability, T/C (second compound 0.01 µM, first compound 1 µM) of 91.6%, a viability, T/C (second compound 0.01 µM, first compound 3.16 µM) of 79.5% and a viability, T/C (second compound 0.01 µM, first compound 10 µM) of 69.7%. The viability, T/C (second compound 0.0316 µM, first compound 0.0316 µM) was 87.3%, the viability, T/C (second compound 0.0316 µM, first compound 0.1 µM) was 94% and the viability, T/C (second compound 0.0316 µM, first compound 0.316 µM) was 103%. For the same compound, the viability, T/C (second compound 0.0316 µM, first compound 1 µM) was 75.5%, the viability, T/C (second compound 0.0316 µM, first compound 3.16 µM) was 87% and the viability, T/C (second compound 0.0316 µM, first compound 10 µM) was 65.5%. It also gave a viability, T/C (second compound 0.1 µM, first compound 0.0316 µM) of 77.6%, a viability, T/C (second compound 0.1 µM, first compound 0.1 µM) of 76.3% and a viability, T/C (second compound 0.1 µM, first compound 0.316 µM) of 89.6%. It also gave a viability, T/C (second compound 0.1 µM, first compound 1 µM) of 87.5%, a viability, T/C (second compound 0.1 µM, first compound 3.16 µM) of 89.5% and a viability, T/C (second compound 0.1 µM, first compound 10 µM) of 53.4%. The viability, T/C (second compound 0.316 µM, first compound 0.0316 µM) was 65.5%, the viability, T/C (second compound 0.316 µM, first compound 0.1 µM) was 79.2% and the viability, T/C (second compound 0.316 µM, first compound 0.316 µM) was 69.7%. It also gave a viability, T/C (second compound 0.316 µM, first compound 1 µM) of 61.4%, a viability, T/C (second compound 0.316 µM, first compound 3.16 µM) of 72.9% and a viability, T/C (second compound 0.316 µM, first compound 10 µM) of 52.1%. For the same compound, the viability, T/C (second compound 1 µM, first compound 0.0316 µM) was 52.9%, the viability, T/C (second compound 1 µM, first compound 0.1 µM) was 54.5% and the viability, T/C (second compound 1 µM, first compound 0.316 µM) was 61%. For the same compound, the viability, T/C (second compound 1 µM, first compound 1 µM) was 57.2%, the viability, T/C (second compound 1 µM, first compound 3.16 µM) was 53% and the viability, T/C (second compound 1 µM, first compound 10 µM) was 38.3%.

For `Cn1cnc2c(F)c(Nc3ccc(Br)cc3Cl)c(C(=O)NOCCO)cc21` + COc1c(OCCCN2CCOCC2)ccc2c3n(c(=NC(=O)c4cnc(N)nc4)nc12)CCN3, the pIC50 (second compound 0.00316 µM) was less than 5.52, the pIC50 (second compound 0.01 µM) was less than 5.52 and the pIC50 (second compound 0.0316 µM) was less than 5.52. It also gave a pIC50 (second compound 0.1 µM) greater than 8.02, a pIC50 (second compound 0.316 µM) greater than 8.02 and a pIC50 (second compound 1 µM) greater than 8.02. For the same compound, the viability, T/C (second compound 0.00316 µM, first compound 0.00949 µM) was 97.1%, the viability, T/C (second compound 0.00316 µM, first compound 0.03 µM) was 88.8% and the viability, T/C (second compound 0.00316 µM, first compound 0.0949 µM) was 88.3%. It also gave a viability, T/C (second compound 0.00316 µM, first compound 0.3 µM) of 94.8%, a viability, T/C (second compound 0.00316 µM, first compound 0.949 µM) of 92.5% and a viability, T/C (second compound 0.00316 µM, first compound 3 µM) of 76.6%. It also gave a viability, T/C (second compound 0.01 µM, first compound 0.00949 µM) of 89.5%, a viability, T/C (second compound 0.01 µM, first compound 0.03 µM) of 77.5% and a viability, T/C (second compound 0.01 µM, first compound 0.0949 µM) of 102%. It also gave a viability, T/C (second compound 0.01 µM, first compound 0.3 µM) of 66%, a viability, T/C (second compound 0.01 µM, first compound 0.949 µM) of 85.6% and a viability, T/C (second compound 0.01 µM, first compound 3 µM) of 92.9%. It also gave a viability, T/C (second compound 0.0316 µM, first compound 0.00949 µM) of 64%, a viability, T/C (second compound 0.0316 µM, first compound 0.03 µM) of 51.7% and a viability, T/C (second compound 0.0316 µM, first compound 0.0949 µM) of 64.6%. The viability, T/C (second compound 0.0316 µM, first compound 0.3 µM) was 57.8%, the viability, T/C (second compound 0.0316 µM, first compound 0.949 µM) was 71.9% and the viability, T/C (second compound 0.0316 µM, first compound 3 µM) was 67.7%. It also gave a viability, T/C (second compound 0.1 µM, first compound 0.00949 µM) of 41.4%, a viability, T/C (second compound 0.1 µM, first compound 0.03 µM) of 34.3% and a viability, T/C (second compound 0.1 µM, first compound 0.0949 µM) of 32.9%. For the same compound, the viability, T/C (second compound 0.1 µM, first compound 0.3 µM) was 38.7%, the viability, T/C (second compound 0.1 µM, first compound 0.949 µM) was 41.5% and the viability, T/C (second compound 0.1 µM, first compound 3 µM) was 35.4%. It also gave a viability, T/C (second compound 0.316 µM, first compound 0.00949 µM) of 12.8%, a viability, T/C (second compound 0.316 µM, first compound 0.03 µM) of 16.8% and a viability, T/C (second compound 0.316 µM, first compound 0.0949 µM) of 16.7%. The viability, T/C (second compound 0.316 µM, first compound 0.3 µM) was 13.7%, the viability, T/C (second compound 0.316 µM, first compound 0.949 µM) was 20.4% and the viability, T/C (second compound 0.316 µM, first compound 3 µM) was 14.4%. For the same compound, the viability, T/C (second compound 1 µM, first compound 0.00949 µM) was 6.16%, the viability, T/C (second compound 1 µM, first compound 0.03 µM) was 4.64% and the viability, T/C (second compound 1 µM, first compound 0.0949 µM) was 7.54%. It also gave a viability, T/C (second compound 1 µM, first compound 0.3 µM) of 7.14%, a viability, T/C (second compound 1 µM, first compound 0.949 µM) of 7.29% and a viability, T/C (second compound 1 µM, first compound 3 µM) of 6.05%.
